Measured values published in the NIST ThermoML archive (doi:10.1016/j.jct.2019.02.019).

Assay: xn = mol fraction of the nth substance listed
Conditions: 101 kPa, Liquid; for viscosity: Capillary tube (Ostwald / Ubbelohde) method; for mass density: Vibrating tube method

CN(CCO)CCO [N-methyldiethanolamine] + CCO
Conditions	mass density, 293.15 K [kg/m3]	mass density, 303.15 K [kg/m3]	mass density, 313.15 K [kg/m3]	mass density, 323.15 K [kg/m3]	viscosity, 293.15 K [mPa·s]	viscosity, 303.15 K [mPa·s]	viscosity, 313.15 K [mPa·s]	viscosity, 323.15 K [mPa·s]
x1 = 0.1003	838.89	830.03	820.48	812.93	1.95	1.54	1.27	1.03
x1 = 0.2001	879.56	869.79	860.28	852.57	3.25	2.45	1.94	1.52
x1 = 0.3001	913.83	903.04	893.56	885.65	5.36	3.88	2.95	2.25
x1 = 0.3998	941.42	930.67	921.43	913.45	8.77	6.08	4.5	3.32
x1 = 0.5	964.94	954.51	945.44	937.39	14.09	9.41	6.64	4.79
x1 = 0.5999	984.81	974.63	965.86	957.92	21.94	14.14	9.68	6.79
x1 = 0.7	1001.91	992.31	983.56	975.64	33.37	20.8	13.69	9.4
x1 = 0.8001	1016.76	1007.51	999.13	991.3	49.36	29.56	18.85	12.44
x1 = 0.9005	1029.58	1020.96	1012.93	1005.16	72.94	41.84	25.38	16.52
x1 = 1	1040.5	1032.6	1024.76	1017.12	103.04	57.28	33.94	21.31

CN(CCO)CCO [N-methyldiethanolamine] + NCCO
Conditions	mass density, 293.15 K [kg/m3]	mass density, 303.15 K [kg/m3]	mass density, 313.15 K [kg/m3]	mass density, 323.15 K [kg/m3]	viscosity, 293.15 K [mPa·s]	viscosity, 303.15 K [mPa·s]	viscosity, 313.15 K [mPa·s]	viscosity, 323.15 K [mPa·s]
x1 = 0.1001	1021.71	1013.23	1005.13	997.1	32.9	19.84	12.83	8.4
x1 = 0.2006	1025.79	1017.39	1009.3	1001.26	43.27	25.18	15.97	10.48
x1 = 0.3	1029.07	1020.72	1012.66	1004.69	52.78	30.53	18.92	12.49
x1 = 0.3998	1031.69	1023.42	1015.36	1007.45	62.64	35.8	21.86	14.3
x1 = 0.4994	1033.82	1025.62	1017.61	1009.72	71.4	40.6	24.53	15.83
x1 = 0.5997	1035.58	1027.46	1019.48	1011.68	79.47	45.11	26.97	17.35
x1 = 0.6977	1037.09	1029.04	1021.11	1013.34	86.28	48.61	29.05	18.6
x1 = 0.7996	1038.43	1030.43	1022.52	1014.79	92.9	52.06	30.87	19.64
x1 = 0.8995	1039.57	1031.61	1023.72	1016.04	98.21	54.8	32.88	20.56
x1 = 1	1040.5	1032.6	1024.76	1017.12	103.04	57.28	33.94	21.31

NCCO [2-aminoethan-1-ol] + CCO
Conditions	mass density, 293.15 K [kg/m3]	mass density, 303.15 K [kg/m3]	mass density, 313.15 K [kg/m3]	mass density, 323.15 K [kg/m3]	viscosity, 293.15 K [mPa·s]	viscosity, 303.15 K [mPa·s]	viscosity, 313.15 K [mPa·s]	viscosity, 323.15 K [mPa·s]
x1 = 0.1002	816.84	808.87	799.33	791.69	1.56	1.27	1.05	0.87
x1 = 0.1999	843.68	834.94	825.34	817.35	2.12	1.68	1.36	1.11
x1 = 0.3002	868.92	860.42	850.66	842.49	2.89	2.23	1.77	1.42
x1 = 0.4004	893.15	884.54	874.69	866.58	3.96	2.98	2.29	1.8
x1 = 0.5	916.18	907.59	897.82	889.61	5.44	3.96	2.95	2.28
x1 = 0.5998	938.02	929.38	919.84	911.88	7.45	5.23	3.8	2.87
x1 = 0.7	959.13	950.81	941.56	933.03	10.19	6.92	4.87	3.6
x1 = 0.7996	978.96	970.81	961.95	953.82	13.74	9.05	6.17	4.48
x1 = 0.8994	998.41	989.98	981.44	973.33	18.22	11.74	7.74	5.48
x1 = 1	1016.3	1008.02	999.98	991.97	23.4	14.71	9.77	6.83
